Source: patent US20220332802A1, “METHODS AND COMPOSITIONS FOR TREATMENT OF NEURODEGENERATION” (Children's Hospital Medical Center, priority 2019, published 2022)

Assays:
GCase [1] = target: T1, GCase (Mus musculus, UniProt P17439)
T1 sequence (P17439 20-515): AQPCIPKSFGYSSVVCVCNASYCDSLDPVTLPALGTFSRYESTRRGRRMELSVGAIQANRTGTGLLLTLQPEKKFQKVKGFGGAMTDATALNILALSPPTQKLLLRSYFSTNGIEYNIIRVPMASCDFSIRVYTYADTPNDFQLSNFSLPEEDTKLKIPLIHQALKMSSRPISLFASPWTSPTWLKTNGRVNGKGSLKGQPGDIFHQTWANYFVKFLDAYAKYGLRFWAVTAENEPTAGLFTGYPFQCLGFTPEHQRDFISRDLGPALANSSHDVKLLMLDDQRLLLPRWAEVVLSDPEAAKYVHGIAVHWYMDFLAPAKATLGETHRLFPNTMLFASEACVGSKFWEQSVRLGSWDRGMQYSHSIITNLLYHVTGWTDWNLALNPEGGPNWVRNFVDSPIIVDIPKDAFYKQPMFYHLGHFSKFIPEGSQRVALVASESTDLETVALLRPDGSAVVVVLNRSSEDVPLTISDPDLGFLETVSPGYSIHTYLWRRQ

[2] = target: T2, glucocerebrosidase (GCase) (Mus musculus, UniProt P17439); test: Targeting of GCase with CBE in WT and C5aR1-/- mice, 60-day observation; format: in vivo; details: CBE-injected WT mice
T2 construct: from tissue; brain examined
T2 sequence (P17439 20-515): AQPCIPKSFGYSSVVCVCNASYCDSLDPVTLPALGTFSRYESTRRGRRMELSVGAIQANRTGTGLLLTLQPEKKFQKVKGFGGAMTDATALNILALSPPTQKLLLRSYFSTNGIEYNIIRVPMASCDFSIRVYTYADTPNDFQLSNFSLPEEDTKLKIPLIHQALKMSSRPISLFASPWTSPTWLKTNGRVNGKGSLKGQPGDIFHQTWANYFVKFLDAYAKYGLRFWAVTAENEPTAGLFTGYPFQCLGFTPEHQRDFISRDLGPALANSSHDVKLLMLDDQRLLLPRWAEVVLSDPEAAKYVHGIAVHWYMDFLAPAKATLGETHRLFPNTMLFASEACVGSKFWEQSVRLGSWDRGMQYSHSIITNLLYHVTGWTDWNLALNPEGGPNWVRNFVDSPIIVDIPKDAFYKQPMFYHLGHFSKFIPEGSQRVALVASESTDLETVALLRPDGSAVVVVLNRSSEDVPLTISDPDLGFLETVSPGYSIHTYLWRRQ
Description: 9V/null mice suffered from massive accumulation of GC in the brain and loss of neurons. Applicant targeted glucocerebrosidase (GCase) with conduritol B epoxide (CBE) in WT and C5aR1^−/− mice. Strikingly, CBE-injected WT mice died within 30 days.

GCase [3] = target: T1, GCase; set-up: from tissue; brain examined; details: i.p. 50 mg/kg/day for 4 weeks; cited from earlier work
C5aR1 = target: T3, C5aR1 (Homo sapiens, UniProt P21730); details: cited from earlier work
T3 sequence (P21730 1-350): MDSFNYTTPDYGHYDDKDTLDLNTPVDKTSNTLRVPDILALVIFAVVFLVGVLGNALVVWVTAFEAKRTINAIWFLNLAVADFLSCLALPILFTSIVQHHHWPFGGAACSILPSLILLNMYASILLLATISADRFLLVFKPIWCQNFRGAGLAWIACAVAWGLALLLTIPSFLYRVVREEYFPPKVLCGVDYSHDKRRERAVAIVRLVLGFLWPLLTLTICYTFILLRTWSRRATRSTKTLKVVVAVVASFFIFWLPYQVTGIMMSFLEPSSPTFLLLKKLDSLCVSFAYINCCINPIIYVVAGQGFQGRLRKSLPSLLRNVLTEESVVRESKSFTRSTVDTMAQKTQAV

[4] = system: experimental Gaucher disease; details: cited from earlier work

Molecule: O[C@H]1[C@H](O)[C@@H](O)[C@@H]2O[C@@H]2[C@@H]1O (racemic) [CBE, conduritol B epoxide]
- motor, memory and reactivity behaviour (GCase [1]; CBE-GCase targeted WT or C5aR1-/- mice, FIG. 8): no motor or memory defects but are hyper-reactive
- brain glucosylceramide (GCase [1]; brain of CBE-GCase targeted PD mouse model, FIG. 1): increased glucosylceramide
- brain C5a and C5aR1 (GCase [1]; brains of CBE-GCase targeted PD mouse model, FIG. 2): increased C5a and C5aR1
- brain pro-inflammatory cytokines (GCase [1]; brains of CBE-GCase targeted PD mouse model, FIG. 3): increased pro-inflammatory cytokines
- time to death [2]: ≤ 30 days
- reduction of GCase activity (GCase [3]): 25-50%

Molecule: Cyclo[N2-(1-Oxo-3-phenylpropyl)-Orn-Pro-D-Cha-Trp-Arg] [PMX 205]
- concentration at which the peptide specifically targets C5aR1 (C5aR1): nanomolar concentrations
- manner of action at C5aR1 (C5aR1): pseudo-irreversible and insurmountable

B1: C5a-(1-66, Cys27Ala)-A8B-Del.71-73) (protein)
chain: TLQKKIEEIAAKYKHSVVKKCCYDGAAVNNDETCEQRAARISLGPRCIKAFTECCVVASQLRANISFKRS
modifications: (C5a-(1-66,Cys27Ala)-A8B-Del 71-73)
notes: mutein of human C5a that targets C5aR1 and C5aR2 simultaneously
- survival and disease signs [4]: increase survival and reverse disease signs
